Inhibition data for 13 molecules are collected here from ChEMBL document CHEMBL3045915, “Microwave-assisted, one-pot syntheses and fungicidal activity of polyfluorinated 2-benzylthiobenzothiazoles” (2006).

Common to all, as to type: functional
For one experiment, the system named is Dothiorella gregaria. As to the kind of experiment: Fungicidal activity against Dothiorella gregaria assessed as inhibition of fungal growth at 50 ug/ml after 48 hr.
The subject of the next experiment is Botrytis cinerea. Nature of the experiment: Fungicidal activity against Botryotinia fuckeliana Pers assessed as inhibition of fungal growth at 50 ug/ml after 48 hr.
In the next experiment the test system is Colletotrichum gossypii. As to the kind of experiment: Fungicidal activity against Colletotrichum gossypii assessed as inhibition of fungal growth at 50 ug/ml after 48 hr.
In the next experiment the test system is Rhizoctonia solani. Nature of the experiment: Fungicidal activity against Rhizoctonia solani assessed as inhibition of fungal growth at 50 ug/ml after 48 hr.

As usually defined, the inhibition is how much of the control response was suppressed.

Consider `Fc1ccccc1CSc1nc2c(F)cccc2s1`, for which the inhibition at 50 µg/mL with Dothiorella gregaria came to 78%; with Botrytis cinerea it was 81%; with Colletotrichum gossypii, 67%; in the experiment with Rhizoctonia solani it was 82%.
In the same order, the values of `Fc1cccc(F)c1CSc1nc2c(F)cccc2s1` are 63%, 78%, 52% and 74%.
In the same order, the values of `Fc1ccc(CSc2nc3c(F)cccc3s2)cc1F` are 89%, 97%, 78% and 92%.
The matching figures for `Fc1ccc2sc(SCc3ccccc3F)nc2c1`: 81%, 83%, 67% and 82%.
Consider `Fc1ccc2sc(SCc3c(F)cccc3F)nc2c1`, for which the inhibition at 50 µg/mL worked out at 74% in the experiment with Dothiorella gregaria, 78% in the experiment on Botrytis cinerea, 56% with Colletotrichum gossypii and 80% in the experiment on Rhizoctonia solani.
`Fc1ccc2sc(SCc3ccc(F)c(F)c3)nc2c1`: the inhibition at 50 µg/mL with Dothiorella gregaria came to 78%; in the experiment on Botrytis cinerea, 69%; in the experiment on Colletotrichum gossypii, 74%; with Rhizoctonia solani, 86%.
The matching figures for `Fc1ccccc1CSc1nc2ccc(F)c(F)c2s1`: 81%, 86%, 74% and 84%.
With `Fc1cccc(F)c1CSc1nc2ccc(F)c(F)c2s1`, the inhibition at 50 µg/mL in the experiment on Dothiorella gregaria worked out at 81%; with Botrytis cinerea, 69%; in the experiment with Colletotrichum gossypii, 63%; in the experiment with Rhizoctonia solani, 82%.
On to `Fc1ccc(CSc2nc3ccc(F)c(F)c3s2)cc1F`, for which the inhibition at 50 µg/mL came to 85% in the experiment on Dothiorella gregaria, 72% with Botrytis cinerea, 80% with Colletotrichum gossypii and 85% in the experiment on Rhizoctonia solani.
Take `Fc1ccccc1CSc1nc2c(Cl)cc(C(F)(F)F)cc2s1`: the inhibition at 50 µg/mL with Dothiorella gregaria came to 70%; with Botrytis cinerea it was 83%; in the experiment on Colletotrichum gossypii it was 70%; with Rhizoctonia solani, 83%.
In the case of `Fc1cccc(F)c1CSc1nc2c(Cl)cc(C(F)(F)F)cc2s1`, the inhibition at 50 µg/mL with Dothiorella gregaria was determined as 62%; with Botrytis cinerea, 67%; in the experiment on Colletotrichum gossypii, 44%; in the experiment on Rhizoctonia solani, 69%.
On to `Fc1ccc(CSc2nc3c(Cl)cc(C(F)(F)F)cc3s2)cc1F`, for which the inhibition at 50 µg/mL came out at 35% with Dothiorella gregaria, 67% in the experiment on Botrytis cinerea, 37% in the experiment with Colletotrichum gossypii and 40% in the experiment on Rhizoctonia solani.
`CC(C)(C)C(=O)C(Oc1ccc(Cl)cc1)n1cncn1` (configuration not stated) [TRIADIMEFON]: the inhibition at 50 µg/mL with Dothiorella gregaria was determined as 61%; with Botrytis cinerea, 84%; with Colletotrichum gossypii, 95%; with Rhizoctonia solani, 90%.
